Laboratory results published in article PMC5218480 (PLoS ONE, 2017).

Tested on: MV-4-11 cells
Test: Gene expression microarray analysis (Affymetrix PrimeView) and GSEA
Format: cell-based, human
Set-up: RFU PODN (11730768_x_at) / Fold change /veh PODN (11730768_x_at) / RFU LINC00158 (11744669_a_at) / Fold change /veh LINC00158 (11744669_a_at) / RFU DUSP10 (11751237_a_at) / Fold change /veh DUSP10 (11751237_a_at) / RFU ID3 (11757404_x_at) / Fold change /veh ID3 (11757404_x_at) / RFU PLEKHG5 (11737974_s_at) / Fold change /veh PLEKHG5 (11737974_s_at) / RFU LRRC4B (11730491_at) / Fold change /veh LRRC4B (11730491_at) / RFU GIMAP4 (11747438_a_at) / Fold change /veh GIMAP4 (11747438_a_at) / RFU KRT8 (11758183_x_at) / Fold change /veh KRT8 (11758183_x_at) / RFU CNN1 (11734310_a_at) / Fold change /veh CNN1 (11734310_a_at) / RFU VPS37D (11726825_at) / Fold change /veh VPS37D (11726825_at) / RFU C10orf10 (11716522_x_at) / Fold change /veh C10orf10 (11716522_x_at) / RFU KIR2DL2 /// KIR2DL4 /// KIR2DL5A /// KIR2DL5B /// KIR2DS1 /// KIR2DS2 /// KIR2DS3 /// KIR2DS4 /// KIR3DL3 /// KIR3DL3 /// KIR3DS1 (11738374_at) / Fold change /veh KIR2DL2 /// KIR2DL4 /// KIR2DL5A /// KIR2DL5B /// KIR2DS1 /// KIR2DS2 /// KIR2DS3 /// KIR2DS4 /// KIR3DL3 /// KIR3DL3 /// KIR3DS1 (11738374_at) / RFU C1QL1 (11718748_at) / Fold change /veh C1QL1 (11718748_at) / RFU TMPRSS4 (11747572_a_at) / Fold change /veh TMPRSS4 (11747572_a_at) / RFU HAMP (11756126_x_at) / Fold change /veh HAMP (11756126_x_at) / RFU RNFT2 (11725882_a_at) / Fold change /veh RNFT2 (11725882_a_at) / RFU NR4A2 (11747474_a_at) / Fold change /veh NR4A2 (11747474_a_at) / RFU ABCC12 (11746883_a_at) / Fold change /veh ABCC12 (11746883_a_at) / RFU TMEM136 (11760407_x_at) / Fold change /veh TMEM136 (11760407_x_at) / RFU CLDN22 /// WWC2 (11732394_at) / Fold change /veh CLDN22 /// WWC2 (11732394_at) / RFU HLA-DPB1 (11760878_x_at) / Fold change /veh HLA-DPB1 (11760878_x_at) / RFU SPINT1 (11716480_a_at) / Fold change /veh SPINT1 (11716480_a_at) / RFU GAP43 (11754022_s_at) / Fold change /veh GAP43 (11754022_s_at) / RFU A4GNT (11735810_at) / Fold change /veh A4GNT (11735810_at) / RFU PRB3 (11715151_x_at) / Fold change /veh PRB3 (11715151_x_at) / RFU TUBB4B (11761932_at) / Fold change /veh TUBB4B (11761932_at) / RFU CAPN14 (11732068_a_at) / Fold change /veh CAPN14 (11732068_a_at) / RFU TMCC2 (11721928_a_at) / Fold change /veh TMCC2 (11721928_a_at) / RFU IRGQ (11745062_a_at) / Fold change /veh IRGQ (11745062_a_at) / RFU FAM174B (11720279_a_at) / Fold change /veh FAM174B (11720279_a_at) / RFU TMPRSS4 (11748680_a_at) / Fold change /veh TMPRSS4 (11748680_a_at) / RFU FAM212B (11763350_a_at) / Fold change /veh FAM212B (11763350_a_at) / RFU PLEKHG5 (11743358_a_at) / Fold change /veh PLEKHG5 (11743358_a_at) / RFU ZSCAN30 (11745921_a_at) / Fold change /veh ZSCAN30 (11745921_a_at) / RFU CMKLR1 (11741424_a_at) / Fold change /veh CMKLR1 (11741424_a_at) / RFU LOC101060620 /// MAPK8IP1 (11723275_at) / Fold change /veh LOC101060620 /// MAPK8IP1 (11723275_at) / RFU SPTSSB (11747773_x_at) / Fold change /veh SPTSSB (11747773_x_at) / RFU PRSS12 (11739890_at) / Fold change /veh PRSS12 (11739890_at) / RFU BIN1 (11741810_x_at) / Fold change /veh BIN1 (11741810_x_at) / RFU WNT11 (11732464_a_at) / Fold change /veh WNT11 (11732464_a_at) / RFU C10orf10 (11716521_a_at) / Fold change /veh C10orf10 (11716521_a_at) / RFU C5orf56 (11738089_at) / Fold change /veh C5orf56 (11738089_at) / RFU CYB561 (11721691_x_at) / Fold change /veh CYB561 (11721691_x_at) / RFU ANKRD19P (11752326_a_at) / Fold change /veh ANKRD19P (11752326_a_at) / RFU OR2T12 /// OR2T33 /// OR2T8 (11738714_s_at) / Fold change /veh OR2T12 /// OR2T33 /// OR2T8 (11738714_s_at) / RFU VCAN (11748164_a_at) / Fold change /veh VCAN (11748164_a_at) / RFU JSRP1 (11732532_at) / Fold change /veh JSRP1 (11732532_at) / RFU KRTAP10-11 (11738290_x_at) / Fold change /veh KRTAP10-11 (11738290_x_at) / RFU MYO3A (11730013_a_at) / Fold change /veh MYO3A (11730013_a_at) / RFU EBF3 (11725865_a_at) / Fold change /veh EBF3 (11725865_a_at) / RFU CAMK2N1 (11719241_x_at) / Fold change /veh CAMK2N1 (11719241_x_at) / RFU C5orf56 (11738088_a_at) / Fold change /veh C5orf56 (11738088_a_at) / RFU OLFML3 (11715873_a_at) / Fold change /veh OLFML3 (11715873_a_at) / RFU LOC100653217 /// NTM (11731650_a_at) / Fold change /veh LOC100653217 /// NTM (11731650_a_at) / RFU MAPK11 (11762145_a_at) / Fold change /veh MAPK11 (11762145_a_at) / RFU FIZ1 (11724087_x_at) / Fold change /veh FIZ1 (11724087_x_at) / RFU OASL (11726364_x_at) / Fold change /veh OASL (11726364_x_at) / RFU SOX15 (11748057_x_at) / Fold change /veh SOX15 (11748057_x_at) / RFU CD79A (11719716_a_at) / Fold change /veh CD79A (11719716_a_at) / RFU HIST1H1D (11736915_at) / Fold change /veh HIST1H1D (11736915_at) / RFU CASKIN2 (11723855_a_at) / Fold change /veh CASKIN2 (11723855_a_at) / RFU LOC730098 (11760151_x_at) / Fold change /veh LOC730098 (11760151_x_at) / RFU OR4N2 (11742367_at) / Fold change /veh OR4N2 (11742367_at) / RFU PRRT2 (11749266_a_at) / Fold change /veh PRRT2 (11749266_a_at) / RFU SNX32 (11753110_a_at) / Fold change /veh SNX32 (11753110_a_at) / RFU CDHR5 (11726645_a_at) / Fold change /veh CDHR5 (11726645_a_at) / RFU RCAN1 (11760418_a_at) / Fold change /veh RCAN1 (11760418_a_at) / RFU FAM167A (11723789_a_at) / Fold change /veh FAM167A (11723789_a_at) / RFU FAM26E (11764081_at) / Fold change /veh FAM26E (11764081_at) / RFU ISYNA1 (11749810_s_at) / Fold change /veh ISYNA1 (11749810_s_at) / RFU ACY1 (11761880_at) / Fold change /veh ACY1 (11761880_at) / RFU 11764098_at / Fold change /veh 11764098_at / RFU SAMD14 (11745864_x_at) / Fold change /veh SAMD14 (11745864_x_at) / RFU NPB (11741838_a_at) / Fold change /veh NPB (11741838_a_at) / RFU TMPRSS6 (11731388_a_at) / Fold change /veh TMPRSS6 (11731388_a_at) / RFU KRTAP10-2 (11738614_at) / Fold change /veh KRTAP10-2 (11738614_at) / RFU ARHGAP8 /// PRR5-ARHGAP8 (11727945_x_at) / Fold change /veh ARHGAP8 /// PRR5-ARHGAP8 (11727945_x_at) / RFU KRTAP5-7 /// NADSYN1 (11734609_at) / Fold change /veh KRTAP5-7 /// NADSYN1 (11734609_at) / RFU RASL12 (11751679_a_at) / Fold change /veh RASL12 (11751679_a_at) / RFU CDKN2B (11736163_a_at) / Fold change /veh CDKN2B (11736163_a_at) / RFU PRF1 (11729649_at) / Fold change /veh PRF1 (11729649_at) / RFU, ZNF638 /// ZNF638-IT1 / Fold change vs veh, ZNF638 /// ZNF638-IT1 / RFU, PANK3 / Fold change vs veh, PANK3 / RFU, SH3YL1 / Fold change vs veh, SH3YL1 / RFU, ZEB2 / Fold change vs veh, ZEB2 / RFU, NRIP1 / Fold change vs veh, NRIP1 / RFU, PTTG1IP / Fold change vs veh, PTTG1IP / RFU, CAPN2 / Fold change vs veh, CAPN2 / RFU, MED14 / Fold change vs veh, MED14 / RFU, SNORA58 / Fold change vs veh, SNORA58 / RFU, C1orf63 / Fold change vs veh, C1orf63 / RFU, LRRFIP1 / Fold change vs veh, LRRFIP1 / RFU, NDUFAF7 / Fold change vs veh, NDUFAF7 / RFU, SLC12A2 / Fold change vs veh, SLC12A2 / RFU, IBTK / Fold change vs veh, IBTK / RFU, ESF1 / Fold change vs veh, ESF1 / Fold change vs veh, TMEM50B / RFU, TAOK1 / Fold change vs veh, TAOK1 / RFU, ACBD3 / Fold change vs veh, ACBD3 / RFU, TMA16 / Fold change vs veh, TMA16 / RFU, RWDD3 / Fold change vs veh, RWDD3 / RFU, BCAT1 / Fold change vs veh, BCAT1 / RFU, EDEM3 / Fold change vs veh, EDEM3 / RFU, TMEM33 / Fold change vs veh, TMEM33 / RFU, WDR75 / Fold change vs veh, WDR75 / RFU, AHCTF1 / Fold change vs veh, AHCTF1 / RFU, TFRC / Fold change vs veh, TFRC / RFU, ZDHHC17 / Fold change vs veh, ZDHHC17 / RFU, NOM1 / Fold change vs veh, NOM1 / RFU, ARL8B / Fold change vs veh, ARL8B / RFU, ZBTB11 / Fold change vs veh, ZBTB11 / RFU, TAMM41 / Fold change vs veh, TAMM41 / RFU, KIAA1704 /// LOC100996395 / Fold change vs veh, KIAA1704 /// LOC100996395 / RFU, ING1 / Fold change vs veh, ING1 / RFU, TRMT61B / Fold change vs veh, TRMT61B / RFU, FUBP3 / Fold change vs veh, FUBP3 / RFU, TP53 / Fold change vs veh, TP53 / RFU, TNKS2 / Fold change vs veh, TNKS2 / RFU, ZFP14 / Fold change vs veh, ZFP14 / RFU, ACTR2 / Fold change vs veh, ACTR2 / RFU, PPP3R1 / Fold change vs veh, PPP3R1 / RFU, PIK3R1 / Fold change vs veh, PIK3R1 / RFU, HNRNPA1 / Fold change vs veh, HNRNPA1 / RFU, RNF170 / Fold change vs veh, RNF170 / RFU, ZNF28 / Fold change vs veh, ZNF28 / RFU, RNGTT / Fold change vs veh, RNGTT / RFU, OGT / Fold change vs veh, OGT / RFU, BRD1 / Fold change vs veh, BRD1 / RFU, MARS / Fold change vs veh, MARS / RFU, ZNF655 / Fold change vs veh, ZNF655 / RFU, FAHD1 / Fold change vs veh, FAHD1 / RFU, BDP1 / Fold change vs veh, BDP1 / RFU, LRRCC1 / Fold change vs veh, LRRCC1 / RFU, ARID1A / Fold change vs veh, ARID1A / RFU, ZNF146 / Fold change vs veh, ZNF146 / RFU, ZNF330 / Fold change vs veh, ZNF330 / RFU, GPN3 / Fold change vs veh, GPN3 / RFU, C9orf123 / Fold change vs veh, C9orf123 / RFU, N4BP2L2 / Fold change vs veh, N4BP2L2 / RFU, ARFIP1 / Fold change vs veh, ARFIP1 / RFU, FAM179B / Fold change vs veh, FAM179B / RFU, BCL10 / Fold change vs veh, BCL10 / RFU, UHRF1BP1L / Fold change vs veh, UHRF1BP1L / RFU, BET1 / Fold change vs veh, BET1 / RFU, CNOT2 / Fold change vs veh, CNOT2 / RFU, ZNF268 / Fold change vs veh, ZNF268 / Fold change vs veh, ZNF507 / RFU, DGCR2 / Fold change vs veh, DGCR2 / RFU, WDSUB1 / Fold change vs veh, WDSUB1 / Fold change vs veh, HSP90B1 /// MIR3652 / RFU, ADSS / Fold change vs veh, ADSS / RFU, GK / Fold change vs veh, GK / RFU, ZNF148 / Fold change vs veh, ZNF148 / RFU, TAF9 / Fold change vs veh, TAF9 / RFU, SLC1A5 / Fold change vs veh, SLC1A5 / RFU, SLMO2 / Fold change vs veh, SLMO2 / RFU, ABCC4 / Fold change vs veh, ABCC4 / RFU, LOC101060439 /// RAP1B / Fold change vs veh, LOC101060439 /// RAP1B / RFU, RFX7 / Fold change vs veh, RFX7 / RFU, GTPBP10 / Fold change vs veh, GTPBP10 / RFU, CNEP1R1 / Fold change vs veh, CNEP1R1 / RFU, BIVM-ERCC5 /// ERCC5 / Fold change vs veh, BIVM-ERCC5 /// ERCC5 / RFU, ILF3 / Fold change vs veh, ILF3 / RFU 11762660_at / Fold change /veh 11762660_at / RFU VCAN (11757783_s_at) / Fold change /veh VCAN (11757783_s_at) / RFU DDX43 (11728927_at) / Fold change /veh DDX43 (11728927_at) / RFU KRT8 (11758188_x_at) / Fold change /veh KRT8 (11758188_x_at) / RFU NKD1 (11759106_at) / Fold change /veh NKD1 (11759106_at) / RFU SRD5A1 (11742802_a_at) / Fold change /veh SRD5A1 (11742802_a_at) / RFU TPSAB1 /// TPSB2 (11721975_s_at) / Fold change /veh TPSAB1 /// TPSB2 (11721975_s_at) / RFU GSTM3 (11746129_a_at) / Fold change /veh GSTM3 (11746129_a_at) / RFU IL23R (11737362_x_at) / Fold change /veh IL23R (11737362_x_at) / RFU TMEM51 (11727254_a_at) / Fold change /veh TMEM51 (11727254_a_at) / RFU PIWIL2 (11732686_x_at) / Fold change /veh PIWIL2 (11732686_x_at) / RFU ORM1 (11744905_x_at) / Fold change /veh ORM1 (11744905_x_at) / RFU CCDC152 (11743942_at) / Fold change /veh CCDC152 (11743942_at) / RFU ECM1 (11717891_a_at) / Fold change /veh ECM1 (11717891_a_at) / RFU IL23R (11748794_a_at) / Fold change /veh IL23R (11748794_a_at) / RFU TNFAIP8L3 (11732012_x_at) / Fold change /veh TNFAIP8L3 (11732012_x_at) / RFU MBOAT4 (11741988_at) / Fold change /veh MBOAT4 (11741988_at) / RFU 11764193_at / Fold change /veh 11764193_at / RFU TMEM53 (11763286_at) / Fold change /veh TMEM53 (11763286_at) / RFU MAGEB2 (11727129_at) / Fold change /veh MAGEB2 (11727129_at) / RFU TMEM200A (11744735_a_at) / Fold change /veh TMEM200A (11744735_a_at) / RFU CCDC152 (11751479_a_at) / Fold change /veh CCDC152 (11751479_a_at) / RFU FAM211A (11726209_a_at) / Fold change /veh FAM211A (11726209_a_at) / RFU RGS16 (11746705_a_at) / Fold change /veh RGS16 (11746705_a_at) / RFU VCAN (11755009_s_at) / Fold change /veh VCAN (11755009_s_at) / RFU RHOB (11743442_s_at) / Fold change /veh RHOB (11743442_s_at) / RFU RGS16 (11720943_a_at) / Fold change /veh RGS16 (11720943_a_at) / RFU RGS16 (11720944_at) / Fold change /veh RGS16 (11720944_at) / RFU, VPS4B / Fold change vs veh, VPS4B / RFU, CREB1 / Fold change vs veh, CREB1 / RFU, DNAJC13 / Fold change vs veh, DNAJC13 / RFU, GNAQ / Fold change vs veh, GNAQ / RFU, CDK5R1 / Fold change vs veh, CDK5R1 / RFU, ZRANB3 / Fold change vs veh, ZRANB3 / RFU, CUL4A / Fold change vs veh, CUL4A / RFU, CCNY / Fold change vs veh, CCNY / RFU, UFL1 / Fold change vs veh, UFL1 / RFU, COG3 / Fold change vs veh, COG3 / RFU, DIAPH2 / Fold change vs veh, DIAPH2 / RFU, SKA2 / Fold change vs veh, SKA2 / RFU, AFF3 / Fold change vs veh, AFF3 / RFU, LMF1 / Fold change vs veh, LMF1 / RFU, IPO11 / Fold change vs veh, IPO11 / RFU, DFFB / Fold change vs veh, DFFB / RFU, FOXP1 / Fold change vs veh, FOXP1 / RFU, CARD8 / Fold change vs veh, CARD8 / RFU, STRN3 / Fold change vs veh, STRN3 / RFU, ADK / Fold change vs veh, ADK / RFU, RASSF2 / Fold change vs veh, RASSF2 / RFU, WIPF1 / Fold change vs veh, WIPF1 / RFU, LARP1B / Fold change vs veh, LARP1B / RFU, RASA1 / Fold change vs veh, RASA1 / RFU, RB1 / Fold change vs veh, RB1 / RFU, PPFIA1 / Fold change vs veh, PPFIA1 / RFU, MAT2A / Fold change vs veh, MAT2A / RFU, CCT5 / Fold change vs veh, CCT5 / RFU, WDR92 / Fold change vs veh, WDR92 / RFU, CUX1 / Fold change vs veh, CUX1 / RFU, TTC7A / Fold change vs veh, TTC7A / RFU, TMEM135 / Fold change vs veh, TMEM135 / RFU, DEPTOR / Fold change vs veh, DEPTOR / RFU, CPM / Fold change vs veh, CPM / RFU, DNAJB6 / Fold change vs veh, DNAJB6 / RFU, CACNA2D3 / Fold change vs veh, CACNA2D3 / RFU, DTX4 / Fold change vs veh, DTX4 / RFU, TFCP2 / Fold change vs veh, TFCP2 / RFU, GMCL1 /// GMCL1P1 / Fold change vs veh, GMCL1 /// GMCL1P1 / RFU, AEBP2 / Fold change vs veh, AEBP2 / RFU, SNHG1 /// SNORD22 /// SNORD25 /// SNORD26 /// SNORD27 /// SNORD28 /// SNORD29 /// SNORD31 / Fold change vs veh, SNHG1 /// SNORD22 /// SNORD25 /// SNORD26 /// SNORD27 /// SNORD28 /// SNORD29 /// SNORD31 / Fold change (Aza/veh), C12orf56 (ProbeSet 11735607_a_at) / Fold change (ACY-1035/veh), C12orf56 (ProbeSet 11735607_a_at) / Fold change (Aza/veh), FGFR1OP (ProbeSet 11751329_s_at) / Fold change (ACY-1035/veh), FGFR1OP (ProbeSet 11751329_s_at) / Fold change (Aza/veh), VPS36 (ProbeSet 11739960_a_at) / Fold change (ACY-1035/veh), VPS36 (ProbeSet 11739960_a_at) / RFU SYPL1 (11715823_x_at) / Fold change /veh SYPL1 (11715823_x_at) / RFU IGFBP7 (11715501_s_at) / Fold change /veh IGFBP7 (11715501_s_at) / RFU REEP3 (11722064_at) / Fold change /veh REEP3 (11722064_at) / RFU IGLL1 (11728026_x_at) / Fold change /veh IGLL1 (11728026_x_at): dose or concentration left out as unconfirmed
Conditions: ProbeSet 11738335_x_at; LIST B

Nc1ccc(-c2cccs2)cc1NC(=O)c1ccc2c(c1)cc(C1CC1)n2CCN1CCOCC1 [ACY-1035]
RFU, TP53: 73.59 RFU
